From ChEMBL document CHEMBL5465560, “Selectivity Literature for EUbOPEN Chemogenomic Library” (2024) come the findings set out here.

The target of experiment [1] is NT-3 growth factor receptor (Homo sapiens, UniProt Q16288). Kind of experiment: Selectivity interaction (Kinase panel (Z-LYTE Assay)) EUB0001632a NTRK3. As to conditions: at 10 µM.
Experiment [2] concerns the target Dual specificity testis-specific protein kinase 1 (Homo sapiens) (UniProt Q15569). Kind of experiment: Selectivity interaction (LanthaScreen Eu Kinase Binding Assay) EUB0001632a TESK1. As to conditions: at 10 µM. In general terms: In TR-FRET formats the signal depends on donor and acceptor labels being close together.
Experiment [3] addresses Serine/threonine-protein kinase MRCK gamma (Homo sapiens) (UniProt Q6DT37). As to conditions: at 10 µM.
For experiment [4], the target named is T1, Inhibitor of nuclear factor kappa-B kinase subunit epsilon (Homo sapiens) (UniProt Q14164).
T1 sequence (whole entry): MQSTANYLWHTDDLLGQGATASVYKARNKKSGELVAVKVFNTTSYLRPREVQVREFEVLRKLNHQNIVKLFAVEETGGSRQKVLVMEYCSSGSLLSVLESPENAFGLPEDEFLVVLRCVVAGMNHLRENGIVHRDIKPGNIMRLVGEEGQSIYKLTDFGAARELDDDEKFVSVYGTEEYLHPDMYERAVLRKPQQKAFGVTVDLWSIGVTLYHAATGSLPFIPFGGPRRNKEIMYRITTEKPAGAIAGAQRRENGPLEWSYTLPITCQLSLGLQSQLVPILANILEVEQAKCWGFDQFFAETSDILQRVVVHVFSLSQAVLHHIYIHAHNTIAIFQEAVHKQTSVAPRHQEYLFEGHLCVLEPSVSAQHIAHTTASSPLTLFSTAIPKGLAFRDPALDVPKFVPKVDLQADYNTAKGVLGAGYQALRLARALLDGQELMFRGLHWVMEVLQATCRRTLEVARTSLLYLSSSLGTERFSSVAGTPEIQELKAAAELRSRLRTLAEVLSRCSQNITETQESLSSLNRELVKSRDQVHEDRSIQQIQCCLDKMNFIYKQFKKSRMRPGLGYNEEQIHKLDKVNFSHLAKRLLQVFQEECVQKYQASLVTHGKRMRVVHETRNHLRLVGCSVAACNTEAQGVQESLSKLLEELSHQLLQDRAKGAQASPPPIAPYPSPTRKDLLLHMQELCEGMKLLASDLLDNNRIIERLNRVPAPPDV
As to conditions: at 10 µM.

Experiment [5] addresses T2, Serine/threonine-protein kinase BRSK2 (Homo sapiens) (UniProt Q8IWQ3).
T2 sequence (whole entry): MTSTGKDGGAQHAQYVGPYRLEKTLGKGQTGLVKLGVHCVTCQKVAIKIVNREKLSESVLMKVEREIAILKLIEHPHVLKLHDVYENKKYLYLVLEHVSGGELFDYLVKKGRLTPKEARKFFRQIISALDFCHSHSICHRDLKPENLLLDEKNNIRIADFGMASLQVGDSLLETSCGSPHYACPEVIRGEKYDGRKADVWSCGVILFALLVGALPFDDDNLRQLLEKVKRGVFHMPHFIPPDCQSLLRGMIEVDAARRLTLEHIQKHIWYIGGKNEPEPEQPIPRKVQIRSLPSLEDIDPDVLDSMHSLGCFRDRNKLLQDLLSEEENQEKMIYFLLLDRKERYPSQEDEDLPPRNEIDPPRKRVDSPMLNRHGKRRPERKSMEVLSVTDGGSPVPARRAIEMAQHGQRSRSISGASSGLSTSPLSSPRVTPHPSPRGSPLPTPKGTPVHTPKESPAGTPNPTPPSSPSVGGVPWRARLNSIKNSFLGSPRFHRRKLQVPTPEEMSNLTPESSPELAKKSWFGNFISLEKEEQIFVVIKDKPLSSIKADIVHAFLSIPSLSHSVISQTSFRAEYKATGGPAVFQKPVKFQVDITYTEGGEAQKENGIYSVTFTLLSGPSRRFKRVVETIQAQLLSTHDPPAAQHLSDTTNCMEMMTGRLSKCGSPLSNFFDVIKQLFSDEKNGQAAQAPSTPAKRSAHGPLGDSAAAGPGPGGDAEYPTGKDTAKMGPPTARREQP
Description: Selectivity interaction (KinomeScan (DiscoverX)) EUB0000666a BRSK2. As to conditions: at 10 µM.

In experiment [6] the target is T3, Serine/threonine-protein kinase 16 (Homo sapiens, UniProt O75716). Kind of experiment: Selectivity interaction (Ambit KINOMEscan and KiNATiv profiling in Jurkat cells) EUB0000090b STK16. It counts as cell-based. As to conditions: at 1 µM.
T3 sequence (O75716 whole entry): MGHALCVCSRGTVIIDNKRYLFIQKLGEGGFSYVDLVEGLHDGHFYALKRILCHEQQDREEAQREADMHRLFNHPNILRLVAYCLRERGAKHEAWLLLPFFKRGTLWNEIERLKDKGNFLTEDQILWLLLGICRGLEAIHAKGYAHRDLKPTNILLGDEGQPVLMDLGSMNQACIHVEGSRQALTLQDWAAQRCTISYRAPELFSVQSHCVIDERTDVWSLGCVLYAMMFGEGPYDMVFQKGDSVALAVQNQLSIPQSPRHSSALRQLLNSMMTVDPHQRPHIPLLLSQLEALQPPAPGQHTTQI
Experiment [7] concerns the target Inhibitor of nuclear factor kappa-B kinase subunit alpha (Homo sapiens, UniProt O15111). Kind of experiment: Selectivity interaction (Kinase panel (Enzyme activity assay)) EUB0000612a CHUK.
Experiment [8] concerns the target T3, Serine/threonine-protein kinase 16. Kind of experiment: Selectivity interaction (KinomeScan (DiscoverX)) EUB0000092b STK16. As to conditions: at 10 µM.
In experiment [9] the target is T4, Mitogen-activated protein kinase kinase kinase 3 (Homo sapiens) (UniProt Q99759).
T4 sequence (whole entry): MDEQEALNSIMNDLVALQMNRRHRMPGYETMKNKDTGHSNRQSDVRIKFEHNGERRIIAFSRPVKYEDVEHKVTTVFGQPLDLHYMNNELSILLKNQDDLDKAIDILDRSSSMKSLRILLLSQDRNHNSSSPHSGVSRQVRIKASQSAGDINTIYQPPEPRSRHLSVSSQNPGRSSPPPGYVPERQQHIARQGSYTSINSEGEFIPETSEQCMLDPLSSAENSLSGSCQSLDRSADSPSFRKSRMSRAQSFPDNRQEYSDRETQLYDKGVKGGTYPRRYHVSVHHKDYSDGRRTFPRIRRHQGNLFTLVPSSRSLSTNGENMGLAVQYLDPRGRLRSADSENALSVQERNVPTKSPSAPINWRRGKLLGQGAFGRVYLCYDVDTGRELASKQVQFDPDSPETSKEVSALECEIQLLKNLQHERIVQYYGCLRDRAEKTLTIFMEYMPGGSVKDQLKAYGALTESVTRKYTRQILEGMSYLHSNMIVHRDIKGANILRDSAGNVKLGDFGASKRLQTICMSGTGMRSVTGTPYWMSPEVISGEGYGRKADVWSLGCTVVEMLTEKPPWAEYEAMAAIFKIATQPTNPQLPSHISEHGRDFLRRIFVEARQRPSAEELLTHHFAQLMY
Kind of experiment: Selectivity interaction (KinomeScan (DiscoverX)) EUB0001079a MAP3K3. As to conditions: at 1 µM.

Experiment [10] concerns the target Phosphatidylinositol 4-phosphate 5-kinase type-1 alpha (Homo sapiens) (UniProt Q99755). Kind of experiment: Selectivity interaction (KinomeScan (DiscoverX)) EUB0001079a PIP5K1A. As to conditions: at 1 µM.
Experiment [11] addresses Cyclin-dependent kinase 13 (Homo sapiens, UniProt Q14004). Description: Selectivity interaction (KinomeScan (DiscoverX)) EUB0000229b CDK13. As to conditions: at 10 µM.

Sequence of Phosphatidylinositol 4-phosphate 5-kinase type-1 alpha (Homo sapiens) (Q99755 whole entry): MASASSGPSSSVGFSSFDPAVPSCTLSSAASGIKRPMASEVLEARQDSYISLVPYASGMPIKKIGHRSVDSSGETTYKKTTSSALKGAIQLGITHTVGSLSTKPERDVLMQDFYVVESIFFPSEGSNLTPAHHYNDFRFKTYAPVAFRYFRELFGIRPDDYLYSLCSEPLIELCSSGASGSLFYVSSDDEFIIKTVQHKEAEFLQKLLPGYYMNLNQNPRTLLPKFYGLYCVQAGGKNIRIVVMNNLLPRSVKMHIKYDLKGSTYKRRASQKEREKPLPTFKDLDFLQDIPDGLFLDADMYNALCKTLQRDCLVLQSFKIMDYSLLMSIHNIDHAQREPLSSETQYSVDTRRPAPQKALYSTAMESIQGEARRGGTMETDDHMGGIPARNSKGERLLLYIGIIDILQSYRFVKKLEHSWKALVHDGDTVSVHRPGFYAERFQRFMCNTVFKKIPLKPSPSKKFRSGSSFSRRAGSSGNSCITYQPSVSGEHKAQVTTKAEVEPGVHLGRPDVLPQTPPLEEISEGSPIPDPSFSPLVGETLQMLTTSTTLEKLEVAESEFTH
Sequence of Dual specificity testis-specific protein kinase 1 (Homo sapiens) (Q15569 whole entry, looked up): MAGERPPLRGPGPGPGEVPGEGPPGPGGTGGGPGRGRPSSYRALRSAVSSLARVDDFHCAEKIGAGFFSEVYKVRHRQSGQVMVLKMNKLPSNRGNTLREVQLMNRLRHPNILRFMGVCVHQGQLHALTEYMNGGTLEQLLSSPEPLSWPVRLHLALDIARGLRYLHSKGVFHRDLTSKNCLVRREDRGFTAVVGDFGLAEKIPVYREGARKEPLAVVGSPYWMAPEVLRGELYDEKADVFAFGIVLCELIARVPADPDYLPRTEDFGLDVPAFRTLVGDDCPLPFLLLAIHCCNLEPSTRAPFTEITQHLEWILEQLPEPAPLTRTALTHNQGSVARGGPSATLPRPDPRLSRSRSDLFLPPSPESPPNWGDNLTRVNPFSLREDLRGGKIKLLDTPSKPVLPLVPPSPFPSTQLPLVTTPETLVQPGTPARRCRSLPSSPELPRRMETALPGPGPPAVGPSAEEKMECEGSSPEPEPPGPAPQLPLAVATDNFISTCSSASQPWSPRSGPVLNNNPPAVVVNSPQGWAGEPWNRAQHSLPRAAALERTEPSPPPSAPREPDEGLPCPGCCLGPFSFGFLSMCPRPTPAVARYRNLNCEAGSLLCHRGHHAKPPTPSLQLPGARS
Sequence of NT-3 growth factor receptor (Q16288 32-839 limits assumed): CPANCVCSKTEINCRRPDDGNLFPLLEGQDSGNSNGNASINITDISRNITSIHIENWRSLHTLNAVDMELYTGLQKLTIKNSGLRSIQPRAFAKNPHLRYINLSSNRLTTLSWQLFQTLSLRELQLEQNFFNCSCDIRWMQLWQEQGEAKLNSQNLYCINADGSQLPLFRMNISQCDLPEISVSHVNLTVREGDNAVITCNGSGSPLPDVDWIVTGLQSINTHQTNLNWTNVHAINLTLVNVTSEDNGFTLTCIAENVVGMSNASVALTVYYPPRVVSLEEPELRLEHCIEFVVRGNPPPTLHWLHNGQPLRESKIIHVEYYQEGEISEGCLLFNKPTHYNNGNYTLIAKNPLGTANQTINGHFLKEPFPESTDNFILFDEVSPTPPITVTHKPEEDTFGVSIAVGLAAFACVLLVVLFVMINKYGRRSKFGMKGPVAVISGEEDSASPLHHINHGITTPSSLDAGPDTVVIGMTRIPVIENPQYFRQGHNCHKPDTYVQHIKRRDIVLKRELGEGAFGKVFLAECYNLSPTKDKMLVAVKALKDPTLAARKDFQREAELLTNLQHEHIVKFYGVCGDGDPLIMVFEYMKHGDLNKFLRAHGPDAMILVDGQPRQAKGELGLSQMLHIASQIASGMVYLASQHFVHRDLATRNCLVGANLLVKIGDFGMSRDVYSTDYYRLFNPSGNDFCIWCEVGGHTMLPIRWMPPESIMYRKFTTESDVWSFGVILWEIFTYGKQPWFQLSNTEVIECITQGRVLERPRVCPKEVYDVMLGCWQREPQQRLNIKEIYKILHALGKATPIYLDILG
Sequence of Inhibitor of nuclear factor kappa-B kinase subunit alpha (O15111 whole entry): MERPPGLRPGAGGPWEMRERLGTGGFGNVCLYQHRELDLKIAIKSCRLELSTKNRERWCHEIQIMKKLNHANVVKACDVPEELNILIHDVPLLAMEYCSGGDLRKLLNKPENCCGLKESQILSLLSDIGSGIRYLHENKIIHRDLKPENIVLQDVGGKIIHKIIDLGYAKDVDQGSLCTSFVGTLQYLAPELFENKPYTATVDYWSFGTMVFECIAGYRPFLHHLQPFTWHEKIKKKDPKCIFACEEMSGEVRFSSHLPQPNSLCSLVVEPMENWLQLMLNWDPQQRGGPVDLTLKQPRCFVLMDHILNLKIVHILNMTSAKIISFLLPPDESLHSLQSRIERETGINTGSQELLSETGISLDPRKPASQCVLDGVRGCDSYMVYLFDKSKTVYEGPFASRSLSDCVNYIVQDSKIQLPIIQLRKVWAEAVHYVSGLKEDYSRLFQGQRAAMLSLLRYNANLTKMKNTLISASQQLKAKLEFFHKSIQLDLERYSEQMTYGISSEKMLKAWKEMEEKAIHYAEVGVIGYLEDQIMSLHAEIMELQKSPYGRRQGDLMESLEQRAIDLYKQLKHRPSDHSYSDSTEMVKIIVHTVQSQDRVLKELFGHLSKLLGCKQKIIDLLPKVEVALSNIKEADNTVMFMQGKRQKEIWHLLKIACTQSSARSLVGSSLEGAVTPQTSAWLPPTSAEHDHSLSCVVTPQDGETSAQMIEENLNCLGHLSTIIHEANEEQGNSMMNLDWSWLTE
Sequence of Cyclin-dependent kinase 13 (Q14004 whole entry, looked up): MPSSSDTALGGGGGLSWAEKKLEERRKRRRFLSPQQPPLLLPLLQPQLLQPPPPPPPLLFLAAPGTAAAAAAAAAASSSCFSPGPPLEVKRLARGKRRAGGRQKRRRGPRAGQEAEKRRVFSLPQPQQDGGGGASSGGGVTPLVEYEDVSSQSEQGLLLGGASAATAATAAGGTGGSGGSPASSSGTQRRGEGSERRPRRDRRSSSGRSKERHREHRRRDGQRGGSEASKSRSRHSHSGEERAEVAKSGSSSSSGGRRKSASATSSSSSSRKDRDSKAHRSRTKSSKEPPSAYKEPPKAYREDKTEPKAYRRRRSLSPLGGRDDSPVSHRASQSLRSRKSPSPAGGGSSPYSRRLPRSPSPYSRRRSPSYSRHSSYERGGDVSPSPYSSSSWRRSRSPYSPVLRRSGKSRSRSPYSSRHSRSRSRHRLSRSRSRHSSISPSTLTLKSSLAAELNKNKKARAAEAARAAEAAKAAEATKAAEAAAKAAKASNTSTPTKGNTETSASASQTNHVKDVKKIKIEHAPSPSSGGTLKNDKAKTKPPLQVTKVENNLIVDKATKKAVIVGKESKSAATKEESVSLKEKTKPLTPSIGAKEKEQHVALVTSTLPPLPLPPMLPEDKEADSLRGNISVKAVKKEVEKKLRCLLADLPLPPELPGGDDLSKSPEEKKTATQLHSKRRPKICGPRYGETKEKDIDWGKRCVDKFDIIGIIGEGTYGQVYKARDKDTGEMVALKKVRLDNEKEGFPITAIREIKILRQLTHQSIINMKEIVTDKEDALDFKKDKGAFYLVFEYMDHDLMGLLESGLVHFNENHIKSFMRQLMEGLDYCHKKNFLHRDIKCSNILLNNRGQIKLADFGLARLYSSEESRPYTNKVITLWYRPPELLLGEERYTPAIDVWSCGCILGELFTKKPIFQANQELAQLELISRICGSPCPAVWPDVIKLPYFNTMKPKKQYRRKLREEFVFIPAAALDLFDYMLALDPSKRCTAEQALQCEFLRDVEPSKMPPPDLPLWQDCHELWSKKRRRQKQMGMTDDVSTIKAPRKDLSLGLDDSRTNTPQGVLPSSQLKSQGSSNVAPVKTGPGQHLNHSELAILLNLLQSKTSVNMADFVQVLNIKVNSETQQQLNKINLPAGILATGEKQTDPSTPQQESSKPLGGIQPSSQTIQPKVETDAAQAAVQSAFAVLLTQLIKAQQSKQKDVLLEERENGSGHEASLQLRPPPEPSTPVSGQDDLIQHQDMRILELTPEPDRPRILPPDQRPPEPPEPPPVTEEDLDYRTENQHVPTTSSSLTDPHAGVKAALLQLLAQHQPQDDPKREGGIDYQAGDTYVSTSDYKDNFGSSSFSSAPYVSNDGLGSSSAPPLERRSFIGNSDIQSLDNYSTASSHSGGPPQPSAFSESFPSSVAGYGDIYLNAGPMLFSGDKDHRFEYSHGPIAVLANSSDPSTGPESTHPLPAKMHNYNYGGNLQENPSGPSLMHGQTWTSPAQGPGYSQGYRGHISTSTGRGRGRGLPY

The molecule `Cn1cc(-n2cnc3c(NCc4nc5cc(Cl)c(Cl)cc5[nH]4)nc(N4CCOCC4)nc32)cn1` showed a % of control in experiment [1] of 19%. Moreover, the % of inhibition in experiment [2] is -5.55%.

Take `CCN(CC)CCCCNc1ncc2cc(-c3cc(OC)cc(OC)c3)c(NC(=O)NC(C)(C)C)nc2n1`: the % of control in experiment [3] and in experiment [4] was 100% in each case.

`O=C(NOC[C@H](O)CO)c1ccc(F)c(F)c1Nc1ccc(I)cc1F` came in with a % of control in experiment [5] of 100%.

As for `CN(C)C/C=C/C(=O)Nc1ccc(C(=O)N2CCCC(Nc3ncc(Cl)c(-c4c[nH]c5ccccc45)n3)C2)cc1` (stereo unspecified), the % of control in [6] was 6.2%.

A word on the IC50: it is the midpoint of a concentration-inhibition curve. A higher IC50 goes with weaker potency. `CCc1cccc(CC)c1NC(=O)c1nn(C)c2c1CCc1cnc(Nc3ccc(C(=O)NC4CCN(C)CC4)cc3OC(F)(F)F)nc1-2` came in with a half-maximal inhibitory concentration (IC50) in [7] of more than 10 µM.

`CCC(=O)N1CCN(c2ccc(-n3c(=O)ccc4cnc5ccc(-c6cnc7ccccc7c6)cc5c43)cc2C(F)(F)F)CC1`: the % of control in experiment [8] was found to be 18%.

In the case of `Nc1cnc(N2CCc3cc(S(=O)(=O)Nc4c(F)cc(Cl)cc4F)cc(N4CCCC4=O)c32)nc1` [TP-020n], the % of control worked out at 97% in experiment [9] and 100% in experiment [10].

On to `COc1cc(N(C)c2ccnc3ccc(C(F)(F)F)cc23)cc(OC)c1OC`, for which the % binding in [11] amounted to 88%.
